Measured values: patent US12018021B2 (UCB Biopharma SRL, priority 2018, dated 2024)

The compounds below were run against IgE-Tb / FcεRIα-Y131A-AF488 (Homo sapiens, UniProt P01854) (assay: IgE-Tb / FcεRIα-Y131A-AF488 FRET assay (protocol for examples 1 to 233)). Conditions: examples 1 to 233: 5 nM IgE-Tb, 25 nM FcεRIα-Y131A-AF488, incubated 2 hours at room temperature; read-out: Y131A FRET IC50 range.
IgE-Tb / FcεRIα-Y131A-AF488, sequence (P01854 1-427 limits assumed, stated change not applied): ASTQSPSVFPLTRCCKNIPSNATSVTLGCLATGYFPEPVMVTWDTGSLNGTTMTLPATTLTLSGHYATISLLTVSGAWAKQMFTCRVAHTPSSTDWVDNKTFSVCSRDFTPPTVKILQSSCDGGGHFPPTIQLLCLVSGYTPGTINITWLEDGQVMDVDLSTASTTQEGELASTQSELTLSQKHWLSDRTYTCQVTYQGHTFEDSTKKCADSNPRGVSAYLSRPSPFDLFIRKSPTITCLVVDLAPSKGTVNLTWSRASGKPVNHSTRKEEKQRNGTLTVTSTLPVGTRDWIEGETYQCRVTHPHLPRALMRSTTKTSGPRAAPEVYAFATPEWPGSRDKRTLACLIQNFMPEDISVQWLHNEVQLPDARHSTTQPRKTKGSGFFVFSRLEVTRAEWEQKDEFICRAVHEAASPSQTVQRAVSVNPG
Assay type: binding
How it was run: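 TR-FRET displacement with 5 nM IgE-Tb and 25 nM FcεRIα-Y131A-AF488 (final), 10-point 3-fold compound dilutions from typically 10 μM top, 2% DMSO, 2 h at room temperature. Excitation 330 nm, 520/495 nm emission ratio; MIN set with 200 nM unlabelled FcεRIα. IC50 from four-parameter logistic fit of percent inhibition.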
With O=C(NCC1CC1)c1c(NC(=O)C2CC2)sc2c1CC(n1cnnn1)CC2 (stereo not shown) [Example 198, 2-(Cyclopropanecarbonylamino)-N-(cyclopropylmethyl)-5-(tetrazol-1-yl)-4,5,6,7-tetrahydrobenzothiophene-3-carboxamide] the IC50 was less than 1000 nM. In the case of Cc1cc(=O)[nH]c(NC2CCc3sc(NC(=O)C4CC4)c(C(=O)NCC4CC4)c3C2)n1 (stereo not shown) [Example 152, 2-(Cyclopropanecarbonylamino)-N-(cyclopropylmethyl)-5-[(4-methyl-6-oxo-1H-pyrimidin-2-yl)amino]-4,5,6,7-tetrahydrobenzothiophene-3-carboxamide], the IC50 is reported as less than 1000 nM. For CCN/C(=N\[N+](=O)[O-])N[C@H]1CCc2sc(NC(=O)C3CC3)c(C(=O)NCC3CC3)c2C1 [Example 145, (5S)-2-(Cyclopropanecarbonylamino)-N-(cyclopropylmethyl)-5-[[(E)-N-ethyl-N′-nitro-carbamimidoyl]amino]-4,5,6,7-tetrahydrobenzothiophene-3-carboxamide], the IC50 was less than 1000 nM. With Cc1cc(N(C)c2nncn2[C@H]2CCc3sc(NC(=O)C4CC4)c(C(=O)NCC4CC4)c3C2)n(C)n1 [Example 214, (5S)-2-(cyclopropanecarbonylamino)-N-(cyclopropylmethyl)-5-[3-[(2,5-dimethylpyrazol-3-yl)-methyl-amino]-1,2,4-triazol-4-yl]-4,5,6,7-tetrahydrobenzothiophene-3-carboxamide] the IC50 was 1000 to 10000 nM. For CCOC(=O)N=C(Nc1ccc(C)cc1)NC1CCc2sc(NC(=O)C3CC3)c(C(=O)NCC3CC3)c2C1 (stereo not shown) [Example 149, ethyl N-[[[2-(cyclopropanecarbonylamino)-3-(cyclopropylmethylcarbamoyl)-4,5,6,7-tetrahydrobenzothiophen-5-yl]amino]-(4-methylanilino)methylene]carbamate], the IC50 was less than 1000 nM. Compound O=C(NCC1CC1)c1c(NC(=O)C2CC2)sc2c1C[C@@H](n1cnnc1Nc1ccccn1)CC2 [Example 138, (5S)-2-(Cyclopropanecarbonylamino)-N-(cyclopropylmethyl)-5-[3-(2-pyridylamino)-1,2,4-triazo-4-yl]-4,5,6,7-tetrahydrobenzothiophene-3-carboxamide] has an IC50 of less than 1000 nM. Nc1noc(=O)n1C1CCc2sc(NC(=O)C3CC3)c(C(=O)NCC3CC3)c2C1 (stereo not shown) [Example 187, 5-(3-Amino-5-oxo-1,2,4-oxadiazol-4-yl)-2-(cyclopropanecarbonylamino)-N-(cyclopropylmethyl)-4,5,6,7-tetrahydrobenzothiophene-3-carboxamide] showed an IC50 of less than 1000 nM. In the case of CNC(=O)c1c(NC(=O)C2CC2C)sc2c1CCCC2 (mixture of isomers) [Example 102, N-Methyl-2-[(2-methylcyclopropanecarbonyl)amino]-4,5,6,7-tetrahydrobenzothiophene-3-carboxamide], the IC50 is reported as 10000 to 50000 nM. O=C(NCC1CC1)c1c(NC(=O)C2CC2)sc2c1CC(Nc1nc3ccccc3[nH]1)CC2 (stereo not shown) [Example 175, 5-(1H-Benzimidazol-2-ylamino)-2-(cyclopropanecarbonylamino)-N-(cyclopropylmethyl)-4,5,6,7-tetrahydrobenzothiophene-3-carboxamide] gave an IC50 of less than 1000 nM. For O=C(NCC1CC1)c1c(NC(=O)C2CC2)sc2c1CC(Nc1cc(=O)cc[nH]1)CC2 (stereo not shown) [Example 158, 2-(Cyclopropanecarbonylamino)-N-(cyclopropylmethyl)-5-[(4-oxo-1H-pyridin-2-yl)amino]-4,5,6,7-tetrahydrobenzothiophene-3-carboxamide], the IC50 was less than 1000 nM. For O=C(NCC1CC1)c1c(NC(=O)C2CC2)sc2c1CN(CCc1ccccc1)CC2 [Example 11, 2-(Cyclopropanecarbonylamino)-N-(cyclopropylmethyl)-5-(2-phenylethyl)-6,7-dihydro-4H-thieno[3,2-c]pyridine-3-carboxamide], the IC50 was 10000 to 50000 nM. Work on CCNC(=NC#N)NC1CCc2sc(NC(=O)C3CC3)c(S(=O)(=O)NCC3CC3)c2C1 (stereo not shown) [Example 31, N-[5-[[N′-Cyano-N-ethyl-carbamimidoyl]amino]-3-(cyclopropylmethylsulfamoyl)-4,5,6,7-tetrahydrobenzothiophen-2-yl]cyclopropanecarboxamide] yielded an IC50 of less than 1000 nM. In the case of CC(=O)NC1CCc2sc(NC(=O)C3CC3)c(C(=O)NCC3CC3)c2C1 (stereo not shown) [Example 206, 5-Acetamido-2-(cyclopropanecarbonylamino)-N-(cyclopropylmethyl)-4,5,6,7-tetrahydrobenzothiophene-3-carboxamide], the IC50 is reported as 1000 to 10000 nM. Work on O=C(NCC1CC1)c1c(NC(=O)C2CC2)sc2c1CC(C(=O)N1CC(O)C1)CC2 (stereo not shown) [Example 55, 2-(Cyclopropanecarbonylamino)-N-(cyclopropylmethyl)-5-(3-hydroxyazetidine-1-carbonyl)-4,5,6,7-tetrahydrobenzothiophene-3-carboxamide] yielded an IC50 of 10000 to 50000 nM. CON=C(Nc1ccc(C)cc1)NC1CCc2sc(NC(=O)C3CC3)c(C(=O)NCC3CC3)c2C1 (stereo not shown) [Example 168, 2-(Cyclopropanecarbonylamino)-N-(cyclopropylmethyl)-5-[[N′-methoxy-N-(p-tolyl)carbamimidoyl]amino]-4,5,6,7-tetrahydrobenzothiophene-3-carboxamide] was tested, and the IC50 was less than 1000 nM. CCc1cc(Nc2nncn2[C@H]2CCc3sc(NC(=O)C4CC4)c(C(=O)NCC4CC4)c3C2)n(C)n1 [Example 228, (5S)-2-(cyclopropanecarbonylamino)-N-(cyclopropylmethyl)-5-[3-[(5-ethyl-2-methyl-pyrazol-3-yl)amino]-1,2,4-triazol-4-yl]-4,5,6,7-tetrahydrobenzothiophene-3-carboxamide] was tested, and the IC50 was less than 1000 nM. O=C(NCC1CC1)c1c(NC(=O)C2CC2)sc2c1C[C@@H](n1ccnc1NCC1CC1)CC2 [Example 133, (5S)-2-(Cyclopropanecarbonylamino)-N-(cyclopropylmethyl)-5-[2-(cyclopropylmethylamino)imidazol-1-yl]-4,5,6,7-tetrahydrobenzothiophene-3-carboxamide] was tested, and the IC50 was less than 1000 nM. For O=C(Nc1sc2c(c1S(=O)(=O)N1CCCC1)CCCC2)C1CC1 [Example 20, N-(3-Pyrrolidin-1-ylsulfonyl-4,5,6,7-tetrahydrobenzothiophen-2-yl)cyclopropanecarboxamide], the IC50 was 1000 to 10000 nM. With O=C(NCC1CC1)c1c(NC(=O)C2CC2)sc2c1C[C@@H](n1cnnc1Nc1cncnc1)CC2 [Example 132, (5S)-2-(Cyclopropanecarbonylamino)-N-(cyclopropylmethyl)-5-[3-(pyrimidin-5-ylamino)-1,2,4-triazol-4-yl]-4,5,6,7-tetrahydrobenzothiophene-3-carboxamide] the IC50 was less than 1000 nM. With O=C(NCC1CC1)c1c(NC(=O)C2CC2)sc2c1CC(c1nc3nccnc3[nH]1)CC2 (stereo not shown) [Example 46, 2-(Cyclopropanecarbonylamino)-N-(cyclopropylmethyl)-5-(1H-imidazo[4,5-b]pyrazin-2-yl)-4,5,6,7-tetrahydrobenzothiophene-3-carboxamide] the IC50 was less than 1000 nM. With N#CC1CCc2sc(NC(=O)C3CC3)c(C(=O)NCC3CC3)c2C1 (stereo not shown) [Example 64, 5-Cyano-2-(cyclopropanecarbonylamino)-N-(cyclopropylmethyl)-4,5,6,7-tetrahydrobenzothiophene-3-carboxamide] the IC50 was 1000 to 10000 nM. Work on C[C@@H]1CCc2sc(NC(=O)C3CC3)c(C(=O)NCC3CC3)c21 (single isomer, unassigned) [Example 13] yielded an IC50 of 1000 to 10000 nM.
